This experiment deals with chymotrypsin-like activity of purified 20S proteasome. It counts as biochemical. The settings on record: read-out: IC50 towards the chymotrypsin-like activity of purified 20S proteasome. The protocol: FIG. 8. […] A). […] Initially, 0.5 μg of purified 20S proteasome is incubated with 20 μM of a fluorogenic peptide substrate, Suc-Leu-Leu-Val-Tyr-AMC, for 30 min at 37° C. in 100 μl of assay buffer (20 mM Tris-HCl, pH 8.0) with various concentrations of tannic acid. After incubation, the reaction mixture is diluted to 200 μl with the assay buffer, followed by measurement of the hydrolyzed 7-amido-4-methyl-coumarin (AMC) groups using a fluorometer with an excitation filter of 380 nm and an emission filter of 460 nm. B). […] Tannic acid (0.3 μg/ml) and Glucose (180 μg/ml) are used in the proteasome activity assay as described above. C). […] Purified calpain I (3 μg) protein is incubated with 40 μM of a fluorogenic peptide substrate, Suc-Leu-Tyr-AMC, for 30 min at 37° C. in 100 μl of assay buffer (50 mM Tris-HCl, pH 7.5, containing 50 mM NaCl, 1 mM EDTA, 1 mM EGTA, 5 mM β-Mercaptoethanol, 5 mM CaCl2, and 0.1% CHAPS) in the absence (control) or presence of 5 μg/ml of tannic acid or 0.18 μg/ml of calpeptin (calpain inhibitor).
Inhibition of the proteasome activity in vitro by tea polyphenols—To measure the 20S proteasome chymotrypsin-like activity, 0.5 μg of a purified 20S proteasome (Calbiochem) is incubated with 20 μM of a fluorogenic peptide substrate, Suc-Leu-Leu-Val-Tyr-AMC (Calbiochem), for 30 min at 37° C. in 100 μl of assay buffer (20 mM Tris-HCl, pH 8.0), with or without tea polyphenols (purity >95%; Sigma) or tea extract. After incubation, the reaction mixture is diluted to 200 μl with the assay buffer, followed by measurement of the hydrolyzed 7-amido-4-methyl-coumarin (AMC) groups using a VersaFluor™ Fluorometer with an excitation filter of 380 nm and an emission filter of 460 nm (Bio-Rad).

Data on 1 compound can be found in patent US6713506B2, “Tea polyphenol esters and analogs thereof for cancer prevention and treatment” (University of South Florida, priority 2000, dated 2004).

chymotrypsin-like activity of purified 20S proteasome, sequence (Q9P992 whole entry): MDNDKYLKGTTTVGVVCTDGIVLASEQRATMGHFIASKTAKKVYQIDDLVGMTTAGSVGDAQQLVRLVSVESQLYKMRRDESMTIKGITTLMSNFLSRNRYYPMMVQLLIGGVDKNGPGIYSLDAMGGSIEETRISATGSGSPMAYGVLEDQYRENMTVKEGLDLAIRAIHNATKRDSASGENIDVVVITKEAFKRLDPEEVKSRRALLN

The term IC50 denotes the point on the concentration scale where inhibition reaches its midpoint. On to `Oc1cc(O)c2c(c1)O[C@H](c1cc(O)c(O)c(O)c1)[C@H](O)C2` [EGC, (−)-epigallocatechin], for which the half-inhibitory concentration (IC50) came to 1.2 mM.
